The source of these data is ChEMBL document CHEMBL1201862, “PubChem BioAssay data set” (2004).

Test systems include M14; NCI-H522; 786-0; SNB-75; NCI-H226; HCT-116; LXFL 529; UACC-62; HCC 2998; CAKI-1; NCI-H460; MOLT-4; SF-295; RPMI-8226; SK-MEL-28; CCRF-CEM; SK-OV-3; SK-MEL-2.
Common to all, as to experiment: NCI anticancer screen, dose series, 48 h

Molecules are shown by their SMILES.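 Dose response: 5 concentrations. Exposure: 48 h. Format: 96-well plates. Endpoint: linear interpolation; highest concentration if not reached. The concentration for 50% growth inhibition is given as GI50.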 Activity calls are given as the source filed them. No stated cut-off is given here; in the data, active = GI50 up to about 1.1 µM and inactive = higher. Some results are limits rather than exact numbers.

`NC1=C(Br)C(=O)c2ncccc2C1=O`: the GI50 was 0.673 µM (active) in the experiment with M14; 0.321 µM (active) in the experiment on NCI-H522; 1.51 µM (inactive) in the experiment on 786-0; 0.183 µM (active) in the experiment on SNB-75; 1.69 µM (inactive) with NCI-H226; 0.22 µM (active) with HCT-116. Also, the GI50 in the experiment on LXFL 529 was 0.321 µM (active); in the experiment on UACC-62 it was 0.232 µM (active); in the experiment on HCC 2998, 1.11 µM (active); with CAKI-1 it was 1.51 µM (inactive); with NCI-H460, 0.393 µM (active); in the experiment with MOLT-4, 1.63 µM (inactive). The GI50 is 0.367 µM (active) in the experiment on SF-295; 0.942 µM (active) in the experiment on RPMI-8226; 0.34 µM (active) in the experiment with SK-MEL-28; 1.4 µM (inactive) in the experiment on CCRF-CEM; 1.81 µM (inactive) in the experiment with SK-OV-3; 0.346 µM (active) with SK-MEL-2.

On to `C[N+](C)(C)Cc1c(CC#N)[nH]c2ccccc12`, for which the GI50 is 84.7 µM (inactive) with M14; 36.8 µM (inactive) in the experiment with NCI-H522; 24.7 µM (inactive) with 786-0; 96.2 µM (inactive) with SNB-75; > 100 µM (inactive) in the experiment on NCI-H226; > 100 µM (inactive) in the experiment with HCT-116. The GI50 in the experiment with LXFL 529 is > 100 µM (inactive); in the experiment on UACC-62 it was > 100 µM (inactive); with HCC 2998, > 100 µM (inactive); in the experiment with CAKI-1 it was 96.8 µM (inactive); in the experiment on NCI-H460 it was > 100 µM (inactive); in the experiment on MOLT-4 it was 24.5 µM (inactive). Besides, the GI50 in the experiment with SF-295 was > 100 µM (inactive); in the experiment on RPMI-8226 it was 31.6 µM (inactive); in the experiment with SK-MEL-28, > 100 µM (inactive); in the experiment with CCRF-CEM, 35.4 µM (inactive); in the experiment with SK-MEL-2, > 100 µM (inactive).

With `CCOC(=O)C(=O)Nc1c(C)cccc1C(C)(C)C`, the GI50 in the experiment with M14 was > 100 µM (inactive); in the experiment with NCI-H522 it was > 100 µM (inactive); in the experiment with 786-0, > 100 µM (inactive); in the experiment with SNB-75, 49.1 µM (inactive); in the experiment on NCI-H226, > 100 µM (inactive); in the experiment with HCT-116, > 100 µM (inactive). The GI50 in the experiment on LXFL 529, in the experiment with UACC-62, in the experiment on HCC 2998, with CAKI-1, with NCI-H460 and with MOLT-4 was > 100 µM (inactive) each time. Moreover, the GI50 in the experiment with SF-295, in the experiment on RPMI-8226, in the experiment with SK-MEL-28, in the experiment with SK-OV-3 and with SK-MEL-2 was > 100 µM (inactive) each time.

In the case of `O=C1COc2cc(NC(=S)Nc3ccccc3)ccc2N1`, the GI50 in the experiment on M14, in the experiment with NCI-H522, in the experiment on 786-0, with SNB-75, in the experiment with NCI-H226 and in the experiment on HCT-116 was > 100 µM (inactive) throughout. Besides, the GI50 with LXFL 529, in the experiment with UACC-62, with HCC 2998, in the experiment with CAKI-1, in the experiment with NCI-H460 and with MOLT-4 was > 100 µM (inactive) each time. Besides, the GI50 in the experiment on SF-295, with RPMI-8226, in the experiment with SK-MEL-28, with CCRF-CEM, in the experiment on SK-OV-3 and in the experiment with SK-MEL-2 was > 100 µM (inactive) in each case.

As for `NC(=O)CCC(NC(=O)Cc1ccccc1)C(=O)O.NC(CCC(=O)NC(=O)Cc1ccccc1)C(=O)O` (configuration not stated), the GI50 with M14 is > 8130 µM (inactive); with NCI-H522, > 8130 µM (inactive); in the experiment on 786-0, > 8130 µM (inactive); in the experiment with SNB-75, 1080 µM (inactive); with HCT-116 it was > 8130 µM (inactive); in the experiment with LXFL 529, > 8130 µM (inactive). Moreover, the GI50 in the experiment on UACC-62, in the experiment on HCC 2998, in the experiment with CAKI-1, in the experiment on MOLT-4, in the experiment with SF-295 and in the experiment with RPMI-8226 was > 8130 µM (inactive) throughout. Moreover, the GI50 with SK-MEL-28, in the experiment on CCRF-CEM, with SK-OV-3 and with SK-MEL-2 was > 8130 µM (inactive) each time.

In the case of `C/C(CC(=O)N(C(C)C)C(C)C)=N\NC(=O)c1ccncc1`, the GI50 in the experiment on M14 is > 100 µM (inactive); in the experiment on NCI-H522 it was > 100 µM (inactive); in the experiment on 786-0, > 100 µM (inactive); in the experiment with SNB-75, 95.7 µM (inactive); with NCI-H226 it was > 100 µM (inactive); with HCT-116, > 100 µM (inactive). Further, the GI50 in the experiment with LXFL 529, with UACC-62, in the experiment on HCC 2998, with MOLT-4, with SF-295 and in the experiment with RPMI-8226 was > 100 µM (inactive) throughout. The GI50 with SK-MEL-28, in the experiment on CCRF-CEM and in the experiment on SK-OV-3 was > 100 µM (inactive) throughout.

As for `CCCCc1c2c(nc3c1CC/C(=C\c1ccc([N+](=O)[O-])cc1)C3=O)CCCC2`, the GI50 with M14 is 1.85 µM (inactive); with NCI-H522 it was 1.51 µM (inactive); in the experiment on 786-0 it was 1.43 µM (inactive); in the experiment on SNB-75, 8.65 µM (inactive); in the experiment with NCI-H226, 2.28 µM (inactive); with HCT-116, 1.8 µM (inactive). The GI50 in the experiment with LXFL 529 is 1.37 µM (inactive); in the experiment with UACC-62, 1.61 µM (inactive); in the experiment with HCC 2998, 1.78 µM (inactive); in the experiment with NCI-H460, 1.57 µM (inactive); in the experiment with MOLT-4, 1.77 µM (inactive); with SF-295, 2.1 µM (inactive). Also, the GI50 was 1.7 µM (inactive) in the experiment with RPMI-8226, 1.69 µM (inactive) with SK-MEL-28, 1.46 µM (inactive) in the experiment with CCRF-CEM and 2.15 µM (inactive) with SK-OV-3.

Take `O=C(c1ccccc1)c1nc2c(Cl)ccc(Cl)c2cc1C(Br)Br`: the GI50 was 1.4 µM (inactive) in the experiment with M14; 1.54 µM (inactive) in the experiment with NCI-H522; 0.286 µM (active) in the experiment with 786-0; 0.668 µM (active) with SNB-75; 1.97 µM (inactive) in the experiment with NCI-H226; 0.375 µM (active) in the experiment with HCT-116. In addition, the GI50 in the experiment on LXFL 529 is 0.39 µM (active); in the experiment with UACC-62, 1.25 µM (inactive); in the experiment on HCC 2998, 2.06 µM (inactive); in the experiment with CAKI-1, 1.58 µM (inactive); with MOLT-4 it was 1.36 µM (inactive); in the experiment with SF-295, 1.2 µM (inactive). Besides, the GI50 is 0.284 µM (active) in the experiment with RPMI-8226, 0.215 µM (active) with SK-MEL-28, 0.191 µM (active) with CCRF-CEM and 2.01 µM (inactive) in the experiment on SK-MEL-2.

Take `Cc1ccc(C)c2c1CCc1cc3ccccc3nc1-2`: the GI50 with M14 is > 100 µM (inactive); in the experiment on NCI-H522, > 100 µM (inactive); in the experiment with 786-0, > 100 µM (inactive); in the experiment with SNB-75, 98.6 µM (inactive); in the experiment with HCT-116, > 100 µM (inactive); with LXFL 529, > 100 µM (inactive). Moreover, the GI50 in the experiment on UACC-62, with HCC 2998, in the experiment on CAKI-1, in the experiment on NCI-H460, in the experiment on MOLT-4 and with SF-295 was > 100 µM (inactive) each time. Besides, the GI50 with RPMI-8226, with SK-MEL-28, in the experiment on CCRF-CEM, with SK-OV-3 and in the experiment on SK-MEL-2 was > 100 µM (inactive) each time.

For the molecule `COc1cc(C(=O)C/C(CCC(=O)Nc2ccc(Cl)cc2C)=N/NC(=O)C(N)=O)ccc1O`, the GI50 in the experiment on M14, in the experiment with NCI-H522, with 786-0, in the experiment on NCI-H226, in the experiment with HCT-116 and in the experiment with LXFL 529 was > 100 µM (inactive) in each case. The GI50 in the experiment on UACC-62, in the experiment with HCC 2998, with CAKI-1, with NCI-H460, in the experiment on MOLT-4 and in the experiment with SF-295 was > 100 µM (inactive) in each case. For the same molecule, the GI50 is > 100 µM (inactive) in the experiment with RPMI-8226, > 100 µM (inactive) with CCRF-CEM, 65.3 µM (inactive) in the experiment on SK-OV-3 and > 100 µM (inactive) in the experiment with SK-MEL-2.

`O=C1C2=C(c3ccccc31)C(c1ccc(F)cc1)N1C(=O)CCSC1=N2` (configuration not stated): the GI50 is > 100 µM (inactive) in the experiment with M14; 72.8 µM (inactive) with NCI-H522; > 100 µM (inactive) with 786-0; 24.4 µM (inactive) in the experiment on SNB-75; 93.3 µM (inactive) with NCI-H226; 95.7 µM (inactive) with HCT-116. Also, the GI50 in the experiment with LXFL 529 is 45.4 µM (inactive); in the experiment on UACC-62, 62.1 µM (inactive); in the experiment on HCC 2998, > 100 µM (inactive); in the experiment on CAKI-1, 69 µM (inactive); in the experiment on NCI-H460, > 100 µM (inactive); in the experiment on MOLT-4 it was 64.6 µM (inactive). The GI50 with SF-295 is > 100 µM (inactive); in the experiment with RPMI-8226, 49.2 µM (inactive); in the experiment on SK-MEL-28, > 100 µM (inactive); in the experiment with CCRF-CEM it was 89.5 µM (inactive); with SK-OV-3, > 100 µM (inactive); in the experiment on SK-MEL-2, > 100 µM (inactive).

Consider `O=C(/C=C/c1c(O)ccc2ccccc12)c1ccc([N+](=O)[O-])cc1`, for which the GI50 is 19.8 µM (inactive) in the experiment on M14; 17 µM (inactive) with NCI-H522; 24.5 µM (inactive) with 786-0; > 83 µM (inactive) in the experiment with SNB-75; > 100 µM (inactive) in the experiment on NCI-H226; 19.3 µM (inactive) with HCT-116. The GI50 was 16.6 µM (inactive) in the experiment with LXFL 529; 17.4 µM (inactive) in the experiment with UACC-62; 97.9 µM (inactive) in the experiment with HCC 2998; 37.8 µM (inactive) in the experiment on CAKI-1; 46.9 µM (inactive) with NCI-H460; 43.6 µM (inactive) in the experiment on MOLT-4. The GI50 with SF-295 is > 66.2 µM (inactive); with RPMI-8226, 25.9 µM (inactive); in the experiment with SK-MEL-28, 30.1 µM (inactive); in the experiment on CCRF-CEM, 17.9 µM (inactive); with SK-OV-3 it was > 100 µM (inactive); in the experiment with SK-MEL-2 it was 33.2 µM (inactive).
